Experimental data taken from ChEMBL document CHEMBL1129835, “Selective cytotoxicity of certain 9-substituted ellipticines for leukemia cells in a variety of leukemia cell cultures” (1997).
pEC50: −log10 of the molar value.

Experiments:
HCT-116 [1] = assay: Effective dose to show cytotoxicity against colon cancer HCT116 cell line was determined; format: functional; settings: Homo sapiens, read-out: ED50 (the source's name)
DU-145 [2] = assay: Concentration for 50% cell kill against prostate cancerDU-145 cell line was determined; format: functional; settings: Homo sapiens, read-out: LC50 (the source's name)
IGROV-1 [3] = assay: Effective dose to show cytotoxicity against ovarian cancer IGROV 1 cell line was determined; format: functional; settings: Homo sapiens, read-out: ED50 (the source's name)
M14 [4] = assay: Cytotoxicity exhibited by the compound for total growth inhibition of melanoma M14 cell line; format: functional; settings: Homo sapiens
NCI-H23 [5] = assay: Concentration for 50% cell kill against non-small cell lung cancer NCI-H23 cell line was determined; format: functional; settings: Homo sapiens, read-out: LC50 (the source's name)
DU-145 [6] = assay: Effective dose to show cytotoxicity against prostate cancer DU-145 cell line was determined; format: functional; settings: Homo sapiens, read-out: ED50 (the source's name)
SNB-19 [7] = assay: Concentration for 50% cell kill against CNS cancer SNB-19 cell line was determined; format: functional; settings: Homo sapiens, read-out: LC50 (the source's name)
SNB-19 [8] = assay: Effective dose to show cytotoxicity against CNS cancer SNB-19 cell line was determined; format: functional; settings: Homo sapiens, read-out: ED50 (the source's name)
PC-3 [9] = assay: Effective dose to show cytotoxicity against prostate cancer PC-3 cell line was determined; format: functional; settings: Homo sapiens, read-out: ED50 (the source's name)
MDA-N [10] = assay: Concentration for 50% cell kill against breast cancer MDA-N cell line was determined; format: functional; settings: Homo sapiens, read-out: LC50 (the source's name)
KM12 = assay: Concentration for 50% cell kill against colon cancer KM-12 cell line was determined; format: functional; settings: Homo sapiens, read-out: LC50 (the source's name)
OVCAR-3 = assay: Effective dose to show cytotoxicity against ovarian cancer OVCAR-3 cell line was determined; format: functional; settings: Homo sapiens, read-out: ED50 (the source's name)
MDA-N [11] = assay: Cytotoxicity exhibited by the compound for total growth inhibition of breast cancer MDA-N cell line; format: functional; settings: Homo sapiens
CAKI-1 [12] = assay: Effective dose to show cytotoxicity against renal cancerCAKI-1 cell line was determined; format: functional; settings: Homo sapiens, read-out: ED50 (the source's name)
LOX IMVI [13] = assay: The compound was evaluated for cytotoxicity against LOX-IMVI melanoma cell line; format: functional; settings: Homo sapiens
U-251 [14] = assay: Concentration for 50% cell kill against CNS cancer U251 cell line was determined; format: functional; settings: Homo sapiens, read-out: LC50 (the source's name)
K562 [15] = assay: Concentration for 50% cell kill against leukemia K-562 cell line was determined; format: functional; settings: Homo sapiens, read-out: LC50 (the source's name)
Malme-3M [16] = assay: Concentration for 50% cell kill against melanoma MALME-3M cell line was determined; format: functional; settings: Homo sapiens, read-out: LC50 (the source's name)
U-251 [17] = assay: Cytotoxicity exhibited by the compound for total growth inhibition of CNS cancer U251 cell line; format: functional; settings: Homo sapiens
U-251 [18] = assay: Effective dose to show cytotoxicity against CNS cancer U251 cell line was determined; format: functional; settings: Homo sapiens, read-out: ED50 (the source's name)
CCRF-CEM [19] = assay: Effective dose to show cytotoxicity against leukemia CCRF-CEM cell line was determined; format: functional; settings: Homo sapiens, read-out: ED50 (the source's name)
MDA-MB-453 = assay: Concentration for 50% cell kill against breast cancer MDA-MB-435 cell line was determined; format: functional; settings: Homo sapiens, read-out: LC50 (the source's name)
CAKI-1 [20] = assay: The compound was evaluated for cytotoxicity against CAKI-1 renal cancer cell line; format: functional; settings: Homo sapiens
CAKI-1 [21] = assay: Concentration for 50% cell kill against renal cancerCAKI-1 cell line was determined; format: functional; settings: Homo sapiens, read-out: LC50 (the source's name)
CCRF-CEM [22] = assay: Cytotoxicity exhibited by the compound for total growth inhibition of leukemia CCRF-CEM cell line; format: functional; settings: Homo sapiens
NCI-H322M [23] = assay: Effective dose to show cytotoxicity against non-small cell lung cancer NCI-H322M cell line was determined; format: functional; settings: Homo sapiens, read-out: ED50 (the source's name)
SNB-75 = assay: Concentration for 50% cell kill against CNS cancer SNB-75 cell line was determined; format: functional; settings: Homo sapiens, read-out: LC50 (the source's name)
CCRF-CEM [24] = assay: Concentration for 50% cell kill against leukemia CCRF-CEM cell line was determined; format: functional; settings: Homo sapiens, read-out: LC50 (the source's name)
NCI-H322M [25] = assay: Cytotoxicity exhibited by the compound for total growth inhibition of non-small cell lung cancer NCI-H322M cell line; format: functional; settings: Homo sapiens
COLO 205 = assay: Cytotoxicity exhibited by the compound for total growth inhibition of colon cancer COLO 205 cell line; format: functional; settings: Homo sapiens
T47D = assay: Effective dose to show cytotoxicity against breast cancer T-47D cell line was determined; format: functional; settings: Homo sapiens, read-out: ED50 (the source's name)
NCI-H23 [26] = assay: Effective dose to show cytotoxicity against non-small cell lung cancer NCI-H23 cell line was determined; format: functional; settings: Homo sapiens, read-out: ED50 (the source's name)
MDA-N [27] = assay: The compound was evaluated for cytotoxicity against MDA-N breast cancer cell line; format: functional; settings: Homo sapiens
M14 [28] = assay: Effective dose to show cytotoxicity against melanoma M14 cell line was determined; format: functional; settings: Homo sapiens, read-out: ED50 (the source's name)
[29] = test system: MDA-MB-435 (Homo sapiens); assay: Cytotoxicity exhibited by the compound for total growth inhibition of breast cancer MDA-MB-435 cell line
NCI-H23 [30] = assay: Cytotoxicity exhibited by the compound for total growth inhibition of non-small cell lung cancer NCI-H23 cell line; format: functional; settings: Homo sapiens
OVCAR-8 = assay: Effective dose to show cytotoxicity against ovarian cancer OVCAR-8 cell line was determined; format: functional; settings: Homo sapiens, read-out: ED50 (the source's name)
PC-3 [31] = assay: Cytotoxicity exhibited by the compound for total growth inhibition of prostate cancer PC-3 cell line; format: functional; settings: Homo sapiens
HCT-116 [32] = assay: The compound was evaluated for cytotoxicity against HCT116 colon cancer cell line; format: functional; settings: Homo sapiens
Malme-3M [33] = assay: Cytotoxicity exhibited by the compound for total growth inhibition of melanoma MALME-3M cell line; format: functional; settings: Homo sapiens
K562 [34] = assay: Cytotoxicity exhibited by the compound for total growth inhibition of leukemia K-562 cell line; format: functional; settings: Homo sapiens
Malme-3M [35] = assay: Effective dose to show cytotoxicity against melanoma MALME-3M cell line was determined; format: functional; settings: Homo sapiens, read-out: ED50 (the source's name)
LOX IMVI [36] = assay: Cytotoxicity exhibited by the compound for total growth inhibition of melanoma LOX IMVI cell line; format: functional; settings: Homo sapiens
IGROV-1 [37] = assay: Cytotoxicity exhibited by the compound for total growth inhibition of ovarian cancer IGROV 1 cell line; format: functional; settings: Homo sapiens
RXF 393 = assay: Concentration for 50% cell kill against renal cancer RXF 393 cell line was determined; format: functional; settings: Homo sapiens, read-out: LC50 (the source's name)
M14 [38] = assay: Concentration for 50% cell kill against melanoma M14 cell line was determined; format: functional; settings: Homo sapiens, read-out: LC50 (the source's name)
PC-3 [39] = assay: The compound was evaluated for cytotoxicity against PC-3 prostate cancer cell line; format: functional; settings: Homo sapiens

Q: How did the pEC50 (HCT-116 [1]) turn out when `Cc1c2ccncc2c(C)c2c1[nH]c1ccc(CO)cc12` was run?
A: 7.30

Q: What about the CC50 (DU-145 [2]) of the same compound?
A: 35000 nM

Q: What about the pEC50 (IGROV-1 [3]) of the same compound?
A: 6.74

Q: And the TGI (M14 [4])?
A: 3650 nM

Q: What about the CC50 (NCI-H23 [5]) of the same compound?
A: 79000 nM

Q: And the pEC50 (DU-145 [6])?
A: 5.89

Q: What about the CC50 (SNB-19 [7]) of the same compound?
A: 56200 nM

Q: And the pEC50 (SNB-19 [8])?
A: 6.68

Q: And the pEC50 (PC-3 [9])?
A: 6.35

Q: And the CC50 (MDA-N [10])?
A: 4330 nM

Q: And the CC50 (KM12)?
A: 7380 nM

Q: And the pEC50 (OVCAR-3)?
A: 6.15

Q: What about the TGI (MDA-N [11]) of the same compound?
A: 1690 nM

Q: What about the pEC50 (CAKI-1 [12]) of the same compound?
A: 6.43

Q: And the GI50 (LOX IMVI [13])?
A: 370 nM

Q: And the CC50 (U-251 [14])?
A: > 100000 nM

Q: What about the CC50 (K562 [15]) of the same compound?
A: > 100000 nM

Q: And the CC50 (Malme-3M [16])?
A: 820 nM

Q: And the TGI (U-251 [17])?
A: > 100000 nM

Q: And the pEC50 (U-251 [18])?
A: 6.55

Q: And the pEC50 (CCRF-CEM [19])?
A: 7.22

Q: And the CC50 (MDA-MB-453)?
A: 6020 nM

Q: What about the GI50 (CAKI-1 [20]) of the same compound?
A: 370 nM

Q: What about the CC50 (CAKI-1 [21]) of the same compound?
A: 52600 nM

Q: And the TGI (CCRF-CEM [22])?
A: 1010 nM

Q: And the pEC50 (NCI-H322M [23])?
A: 6.21

Q: And the CC50 (SNB-75)?
A: 14900 nM

Q: What about the CC50 (CCRF-CEM [24]) of the same compound?
A: > 100000 nM

Q: What about the TGI (NCI-H322M [25]) of the same compound?
A: 11500 nM

Q: And the TGI (COLO 205)?
A: 2200 nM

Q: And the pEC50 (T47D)?
A: 5.85

Q: What about the pEC50 (NCI-H23 [26]) of the same compound?
A: 6.17

Q: What about the GI50 (MDA-N [27]) of the same compound?
A: 350 nM

Q: And the pEC50 (M14 [28])?
A: 6.22

Q: What about the TGI [29] of the same compound?
A: 1610 nM

Q: What about the TGI (NCI-H23 [30]) of the same compound?
A: 9440 nM

Q: And the pEC50 (OVCAR-8)?
A: 6.38

Q: What about the TGI (PC-3 [31]) of the same compound?
A: 3600 nM

Q: What about the GI50 (HCT-116 [32]) of the same compound?
A: 50 nM

Q: What about the TGI (Malme-3M [33]) of the same compound?
A: 7350 nM

Q: What about the TGI (K562 [34]) of the same compound?
A: 110 nM

Q: What about the pEC50 (Malme-3M [35]) of the same compound?
A: 6.19

Q: What about the TGI (LOX IMVI [36]) of the same compound?
A: 3030 nM

Q: And the TGI (IGROV-1 [37])?
A: 11700 nM

Q: And the CC50 (RXF 393)?
A: 9430 nM

Q: What about the CC50 (M14 [38]) of the same compound?
A: 34100 nM

Q: What about the GI50 (PC-3 [39]) of the same compound?
A: 450 nM
